Assay results taken from patent US6043279A, “Compounds having selective activity for retinoid X receptors, and means for modulation of processes mediated by retinoid X receptors” (priority 1997, dated 2000).

Columns and labels:
RAR = assay: apoA1 "A" site reporter co-transfection in HepG-2 cells with RAR; assay type: cell-based
Excerpt: (§1) This work focused on studying the transcriptional properties of the retinoid receptors RAR and RXR on a reporter molecule (e.g., luciferase) under control of a basal promoter containing the RXR response element from the apoA1 gene ("A" site). Plasmid constructs coding for the various receptors were transfected into a human hepatocyte cell line (HepG-2) along with the reporter plasmid. […] Widom et al., Mol. Cell. […] After transfection, treatment, harvest, and assay, the data obtained was normalized to transfected beta-galactosidase activity so as to control for transfection efficiency.

Rhino mice = assay: comedolytic test on Rhino mice; assay type: in vivo
RXR = assay: apoA1 "A" site reporter co-transfection in HepG-2 cells with RXR; assay type: cell-based
Excerpt: as §1

[1] = rats
Method: Male Sprague-Dawley rats (160-200 gram) were obtained from Harlan. Animals were fed standard laboratory diets (Harlan/Teklad) and kept in an environmentally controlled animal house with a light period lasting from 6 a.m. to 6 p.m. Animals were treated with drugs prepared as suspensions in olive oil.
Plasma was separated and stored at 4° C. for evaluation of plasma total cholesterol and high density lipoprotein cholesterol (HDL-cholesterol).
Plasma total cholesterol was measured enzymatically utilizing Boeringer Mannheim Diagnostics High Performance Cholesterol Methods with an ABBOTT VP Bichromatic Analyzer. HDL cholesterol was measured after preparation of the HDL-containing fraction by heparin-manganese precipitation of plasma. HDL-cholesterol in this fraction was estimated as mentioned earlier. All HDL separations were checked for contamination by other lipoproteins with agarose gel electrophoresis.
Serum samples were taken and analyzed by Western Blot using antisera specific to rat apoA1.

[2] = system: ME180, a squamous cell carcinoma; assay: growth of ME180 tumor cells (cell number); assay type: cell-based, human
Excerpt: (§2) The effects on growth of these cells were monitored by evaluation of cell number, and also by evaluation of growth in semi-solid medium for the RPMI18226 cell line. […] The therapeutic index is defined as the ratio of efficacy to toxicity of a compound.

[3] = system: RPMI18226, a multiple myeloma; assay: growth of RPMI18226 tumor cells (cell number, semi-solid medium); assay type: cell-based, human; conditions: cell number and growth in semi-solid medium
Excerpt: as §2

RXRβ = biological target: T1, RXRβ (Mus musculus, UniProt P28704); assay: co-transfection (cis-trans) assay in CV-1 cells, RXRβ; assay type: cell-based; conditions: CV-1, read-out: Efficacy RXRβ
T1 construct: expressed in transfected cells; host or cells: CV-1 (monkey kidney)
T1 sequence (P28704 1-520): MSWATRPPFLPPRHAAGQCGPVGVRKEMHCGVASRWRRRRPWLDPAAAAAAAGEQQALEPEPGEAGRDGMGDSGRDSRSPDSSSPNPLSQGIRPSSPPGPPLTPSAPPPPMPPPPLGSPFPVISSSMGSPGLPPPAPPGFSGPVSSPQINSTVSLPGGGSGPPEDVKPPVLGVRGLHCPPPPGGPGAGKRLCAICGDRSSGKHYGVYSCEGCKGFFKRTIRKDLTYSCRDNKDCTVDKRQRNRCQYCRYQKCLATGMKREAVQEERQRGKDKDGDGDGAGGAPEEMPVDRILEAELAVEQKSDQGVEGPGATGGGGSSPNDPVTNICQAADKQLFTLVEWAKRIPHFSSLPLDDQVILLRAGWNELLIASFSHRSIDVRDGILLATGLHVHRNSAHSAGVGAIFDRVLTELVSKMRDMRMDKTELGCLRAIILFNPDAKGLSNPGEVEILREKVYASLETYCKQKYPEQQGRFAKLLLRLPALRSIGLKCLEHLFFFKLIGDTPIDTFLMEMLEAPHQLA
Excerpt: The co-transfection assay provides a mechanism to evaluate the ability of a compound to modulate the transcription response initiated by an intracellular receptor. […] Berger et al., J. Steroid Biochem. Molec.
Briefly, the co-transfection assay involves the introduction of two plasmids by transient transfection into a retinoid receptor-negative mammalian cell background. The first plasmid contains a retinoid receptor cDNA and directs constitutive expression of the encoded receptor. The second plasmid contains a cDNA that encodes for a readily quantifiable protein, e.g., firefly luciferase or chloramphenicol acetyl transferase (CAT), under control of a promoter containing a retinoid acid response element, which confers retinoid dependence on the transcription of the reporter. In this co-transfection assay, all retinoid receptors respond to all-trans-retinoic acid in a similar fashion. This assay can be used to accurately measure efficacy and potency of retinoic acid and synthetic retinoids as ligands that interact with the individual retinoid receptor subtypes.
Accordingly, synthetic retinoid compounds of the current invention were evaluated for their interaction with retinoid receptor subtypes using the co-transfection assay in which CV-1 cells were co-transfected with one of the retinoid receptor subtypes, a reporter construct, and an internal control to allow normalization of the response for transfection efficiency. The following example is illustrative.
Retinoids: All-trans-retinoic acid (RA) and 13-cis-retinoic acid (13-cis-RA) were obtained from Sigma. […] Retinoids were dissolved in dimethylsulfoxide for use in the transcriptional activation assays.
Co-transfection Assay In CV-1 Cells: A monkey kidney cell line, CV-1, was used in the cis-trans assay. Cells were transfected with two plasmids. […] The cis-vector contains an easily assayable gene product, in this case the firefly luciferase, coupled to a retinoid-responsive promoter, i.e., an RARE or RXRE. Addition of retinoic acid or an appropriate synthetic retinoid results in the formation of a retinoid-RAR or -RXR complex that activates the expression of luciferase gene, causing light to be emitted from cell extracts. The level of luciferase activity is directly proportional to the effectiveness of the retinoid-receptor complex in activating gene expression. This sensitive and reproducible co-transfection approach permits the identification of retinoids that interact with the different receptor isoforms.
Cells were cultured in DMEM supplemented with 10% charcoal resin-stripped fetal bovine serum, and experiments were conducted in 96-well plates. […] Cells were transfected for 6 h and then washed to remove the precipitate. The cells were then incubated for 36 h with or without retinoid. After the transfection, all subsequent steps were performed on a Beckman Biomek Automated Workstation. […] All determinations were performed in triplicate in two independent experiments and were normalized for transfection efficiency by using β-galactosidase as the internal control. […] Efficacy values less than 5% are not statistically different than the 0% background.

[4] = system: myeloma cell line (RPMI 8226); assay: thymidine incorporation assay in myeloma cell line RPMI 8226; assay type: cell-based; conditions: RPMI 8226 myeloma cells, FIG. 11
Excerpt: This assay examines the incorporation of radiolabeled thymidine into DNA, and by determining the ability of a compound to inhibit thymidine incorporation into DNA, provides a measure of cell proliferation.

HL60 = assay: thymidine incorporation assay in HL60 cells; assay type: cell-based
RXRα/PPAR = biological target: T2, RXRα/PPAR (UniProt P19793+P23204); assay: co-transfection of RXRα and PPAR into HepG2 cells, target reporter gene; assay type: cell-based; conditions: HepG2, read-out: Normalized Response (%)
T2 construct: expressed in transfected cells; host or cells: HepG2
Excerpt: Specifically, peroxisome proliferator-activated receptor (PPAR) is a member of the intracellular receptor super family that plays a role in the modulation of lipid homeostasis. […] These agents, called peroxisome proliferators, have been used in man as hypolipidemic agents.

T2 sequence (P23204 whole entry): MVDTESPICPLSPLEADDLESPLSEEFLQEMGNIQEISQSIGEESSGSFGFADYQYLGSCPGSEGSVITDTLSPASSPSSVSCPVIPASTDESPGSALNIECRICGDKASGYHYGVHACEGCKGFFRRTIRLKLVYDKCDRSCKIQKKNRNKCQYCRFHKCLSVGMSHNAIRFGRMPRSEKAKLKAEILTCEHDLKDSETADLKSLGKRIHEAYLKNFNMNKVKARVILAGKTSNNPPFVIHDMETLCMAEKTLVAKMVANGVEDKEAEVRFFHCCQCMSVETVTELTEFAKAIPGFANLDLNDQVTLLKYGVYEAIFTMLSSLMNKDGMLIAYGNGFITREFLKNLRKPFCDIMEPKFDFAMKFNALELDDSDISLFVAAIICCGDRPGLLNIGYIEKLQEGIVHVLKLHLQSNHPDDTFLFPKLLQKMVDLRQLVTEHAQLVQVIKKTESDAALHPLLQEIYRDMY
T2 sequence (P19793 whole entry): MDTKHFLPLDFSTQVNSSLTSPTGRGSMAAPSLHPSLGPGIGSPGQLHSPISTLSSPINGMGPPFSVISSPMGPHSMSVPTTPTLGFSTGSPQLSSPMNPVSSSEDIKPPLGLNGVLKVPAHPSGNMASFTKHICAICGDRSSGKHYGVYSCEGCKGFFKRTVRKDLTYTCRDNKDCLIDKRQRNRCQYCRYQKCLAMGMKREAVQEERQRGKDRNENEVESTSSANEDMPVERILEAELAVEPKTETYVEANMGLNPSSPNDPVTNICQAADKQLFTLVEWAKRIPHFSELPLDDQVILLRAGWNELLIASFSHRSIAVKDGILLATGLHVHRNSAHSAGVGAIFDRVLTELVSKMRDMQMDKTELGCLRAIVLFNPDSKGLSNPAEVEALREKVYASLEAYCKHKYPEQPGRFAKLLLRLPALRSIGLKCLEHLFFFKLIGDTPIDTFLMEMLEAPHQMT

Cc1cc2c(cc1C(=O)c1ccc(C(=O)O)cc1)C(C)(C)CCC2(C)C [3-methyl-TTNCB, 4-[(3,5,5,8,8-pentamethyl-5,6,7,8-tetrahydro-2-naphthyl)carbonyl]benzoic acid]
effect on apoA1 "A" site reporter with RAR (RAR): no effect
inhibition of utriculi diameter (Rhino mice; 0.1% solution, topical, Rhino mice, FIG. 9): approximately 50%
irritation to the skin of Rhino mice (Rhino mice; compared with 9-cis- or all-trans-retinoic acid): less irritating to the skin of Rhino mice than 9-cis- or all-trans-retinoic acid
activation of apoA1 "A" site reporter with RXR (RXR): activation in the system

C=C(c1ccc(C(=O)O)cc1)c1cc2c(cc1C)C(C)(C)CCC2(C)C [3-methyl-TTNEB, 4-[1-(3,5,5,8,8-pentamethyl-5,6,7,8-tetrahydro-2-naphthyl)ethenyl]benzoic acid]
total cholesterol ([1]; 4 days): an increase due to the increase of the HDL-cholesterol fraction
plasma HDL-cholesterol at the lowest dose ([1]; 4 days, 0.3 mg/kg i.p.): significant increases
circulating apoA1 levels ([1]; orally 3 mg/kg daily for four days, Western Blot of serum): significant increase in circulating apoA1 levels
cell growth [2]: inhibit cell growth in a concentration-dependent manner
cell growth [3]: inhibit cell growth in a concentration-dependent manner

CC1=C(/C=C/C(C)=C\C=C\C(C)=C\C(=O)O)C(C)(C)CCC1 [9-cis-retinoic acid, reference compound]
Emax (RXRβ): 140%

C/C(=C\c1ccc(C(=O)O)cc1)c1ccc2c(c1)C(C)(C)CCC2(C)C [TTNPB]
concentrations providing essentially no effect on cell proliferation [4]: less than 10^-11 M

CC1=C(/C=C/C(C)=C/C=C/C(C)=C/C(=O)O)C(C)(C)CCC1 [all-trans-retinoic acid, All-trans-retinoic acid]
cellular proliferation (thymidine incorporation) (HL60): inhibits thymidine incorporation

CC(C)(Oc1ccc(Cl)cc1)C(=O)O [clofibric Acid, clofibric acid]
Emax (RXRα/PPAR): 100%
